# Source: patent US8815937B2, “Lipoyl compounds and their use for treating ischemic injury” (Ischemix LLC, priority 2010, dated 2014)
# How the values were obtained:
# [1] = test system: rat model of MI/AR injury (myocardial ischemia-reperfusion injury); test: Rat model of MI/AR injury (LCA ligation, myocardial ischemia-reperfusion); format: in vivo; settings: for Reduction in Cardiac injury: LCA rat model, procedure of Example 2; for MI/AR Reduction (%): male Sprague-Dawley rats, compound given 15 minutes prior to ligation, intravenous, doses ranged 1-20 mg/kg, 24 hours after reperfusion, relative to vehicle controls
# Excerpt: A rat model of MI/AR injury was used as an in vivo screen to determine if the compounds of Tables 1-5 were cardio-protective (e.g., against myocardial ischemia-reperfusion injury). This model is analogous to the ischemia-reperfusion injury observed in cardiac patients following coronary occlusions and cardiac surgery procedures, such as coronary artery bypass grafting (CABG) (Matsui, T., Tao, J., del Monte, F., Lee, K.-H. et al., Akt Activation Preserves Cardiac Function and Prevents Injury After Transient Cardiac Ischemia In vivo, Circulation 2001, 104:330, the teachings of which are incorporated herein by reference in their entirety).
# The circumflex branch of the left coronary artery (LCA) was ligated temporarily to induce regional ischemia in the left ventricular mass, followed by the injection of fluorescent microspheres to delineate the ischemic region. 15 minutes prior to ligation (pre-occlusion, pre-ischemic episode), a compound from Tables 1-5 was administered to the animals. Doses of the compounds listed in Tables 1-5 ranged from 1-20 mg/kg. The animals were sacrificed about 24 hours after reperfusion and the hearts were excised, sectioned and stained with triphenyltetrazolium. The direct impact of the pharmacologic intervention was determined by measuring the myocardial infarct area (MI), the ischemic area at risk (AR) and the left ventricular area (LV). The reduction of MI over the AR (MI/AR ratio) was used as the primary measure of drug efficacy relative to vehicle controls.
# Male Sprague-Dawley rats between 300 and 350 g were used for these experiments. Anesthesia was induced with 3-4% isoflurane in an induction chamber. After induction, anesthesia was maintained at a surgical plane with 1.5-2.0% isoflurane, administered by a Rodent Ventilator through a 16-gauge angiocatheter introduced orally into the trachea. The ventilator was set at 2.5 cc at a rate of 60-65 breaths per minute to maintain ventilation during surgery. The core temperature of the animal was monitored and maintained at 37° C. using a rectal probe and a heating lamp attached to a temperature controller.
# A left anterior thoracotomy was performed and the heart was exposed using a vertical pericardotomy. The circumflex branch of the left coronary artery (LCx) was ligated approximately 4 mm from the aorta using a cardiovascular 7.0 monofilament suture on an 11 mm needle to induce ischemia in the left ventricle.
# Fluorescent microspheres (300 μL) were injected into the left ventricular cavity 10-20 minutes after the ligation to delineate the ischemic area. The suture was removed 30 minutes after ligation to reperfuse the ischemic area and the ischemic area was checked for reperfusion.
# The chest was then closed in layers using absorbable suture (Dexon 5-0) for the muscle layers and monofilament Nylon 5-0 suture was used to close the cutaneous layer. The animals were allowed to recover, then were returned to the colony.
# Twenty-four hours after reperfusion, anesthesia was induced using ketamine hydrochloride and the chest was opened. The animals were sacrificed with 15% potassium chloride aqueous solution (w/v) injected into the LV cavity to arrest the heart in diastole. The heart was excised distal to the aortic valve and washed with saline to remove the blood. Sagittal slices of the heart were obtained between the base of the ventricle and the apex. Five slices of heart tissue were obtained, each 2 mm thick. The slices were immersed in a 1% 2,3,5-triphenyl-2H-tetrazolium chloride (TTC) in saline solution and then stored in the dark for 30 minutes to stain.
# Images of the slices were obtained under bright field (to observe the TTC staining) and under fluorescence (to observe the microspheres). The area at risk was determined by the absence of microspheres and the infarct area was determined by the absence of TTC staining.
# [2] = test system: PAC rat model of ischemia-induced renal injury; test: Partial aortic clamping (PAC) rat model of ischemia-induced renal injury; format: in vivo; settings: for Reduction of SCr vs. control: serum creatinine 24 hours post-surgery; for serum creatinine concentrations relative to the control animals (in words): administered intravenously
# Excerpt: A partial aortic clamping (PAC) rat model of ischemia-induced renal injury was used as an in vivo screen to determine if RLip-EA-OH (Entry 1), RLip-Cya-OH (Entry 10), RLip-Tau (Entry 13), and RLip-aminoethylphosphonic acid (Entry 15) were renal-protective (e.g., against renal ischemia-reperfusion injury). This model simulates ischemia-reperfusion injury observed in renal patients following ischemia-induced renal failure (Molitoris, B. A., Dagher, P. C., Sandoval, R. M., Campos, S. B., Ashush, H., Fridman, E., Brafman, A. Faerman, A., Atkinson, S. J., Thompson, J. D., Kalinski, H., Skaliter, R., Erlich, S., Feinstein, E. “siRNA Targeted to p53 Attenuates Ischemic and Cisplatin-Induced Acute Kidney Injury.” J Am Soc Nephrol, 2009, vol. 20, 1754-1764, the teachings of which are incorporated herein by reference to their entirety). Serum creatinine concentrations (SCr) typically rise due to renal ischemia and effective treatment should show a reduction in serum creatinine concentrations.
# The abdominal aorta just below the renal arteries was isolated and temporarily ligated to induce regional ischemia using an aortic clamp. An initial blood sample was drawn at study initiation for baseline creatinine measurement and at 24 hours post-surgery for functional evaluation of the severity of kidney injury. The animals were sacrificed about 24 hours after reperfusion.
# Male Sprague-Dawley rats between 200 to 250 g were used for these experiments. Anesthesia was induced with 5% halothane and maintained with 1-1.5% halothane in oxygen-enriched air via a face mask. The rats were maintained on a warming blanket throughout the procedure to maintain body temperature at 37° C. After shaving the abdomen of the rat, a midline incision was made through the skin and musculature to expose the abdominal cavity to quantify the aortic blood flow (ABF).
# Aortic clamps comprised of two 4-mm in length polyethylene tubes (PE-100, 0.86-mm diameter) were then placed around the aorta to induce renal ischemia. One clamp was placed around the aorta and the other was placed to exert variable tension via a 10-in. 3.0 silk suture. The silk thread was then tied and the tension on the two ends of the thread increased until there was a 90% reduction of initial (ABF) rate measured on the ultrasonic probe reader. A 10% baseline blood flow was maintained for a period of 30 minutes.
# RLip-EA-OH (Entry 1) at 10 mg/kg; RLip-Cya-OH (Entry 10) at 3 mg/kg; RLip-Tau (Entry 13) at 3 mg/kg; and RLip-aminoethylphosphonic acid at 10 mg/kg, 3 mg/kg, and 1 mg/kg were administered intravenously via the femoral vein as a bolus dose 15 minutes prior to ischemia. A 0.15-mL venous blood sample was drawn at study initiation for baseline creatinine measurement and at 24 hours postsurgery for functional evaluation of the severity of kidney injury. Serum creatinine concentrations were then measured on a Creatinine Analyzer 2. The efficacy of RLip-EA-OH and RLip-Tau were measured against the results of vehicle-treated animals in the blinded studies. A 2-tail t-test was used to determine differences between treatments.
# [3] = 10 mg/kg iv bolus 15 minutes prior to ischemia
# [4] = 3 mg/kg iv bolus 15 minutes prior to ischemia
Structure (SMILES),MI/AR Reduction (%) [1] [%],further results
"CC(NC(=O)C(CCC(=O)O)NC(=O)CCCCC1CCSS1)C(=O)O [Entry 1, N-(R)-lipoyl-L-glutamyl-L-alanine]",31,"Reduction in Cardiac injury ([1]; dose group 10 mg/kg): 33%; Reduction of SCr vs. control [2, 3]: 39.5%; serum creatinine concentrations relative to the control animals (in words) [2]: effectively reduced serum creatinine concentrations"
"O=C(O)CNC(=O)C(CC(=O)O)NC(=O)CCCCC1CCSS1 [Entry 2, N-lipoyl-L-aspartylglycine]",28,
"CC(NC(=O)C(Cc1ccc(O)cc1)NC(=O)CCCCC1CCSS1)C(=O)O [Entry 3, N-(R)-lipoyl-L-tyrosinyl-L-alanine]",31,
"O=C(O)CCC(NC(=O)CCCCC1CCSS1)C(=O)NCCS(=O)(=O)O [Entry 4, N-(R)-lipoyl-L-glutamyltaurine]",33,
"CC(NC(=O)CCCCC1CCSS1)C(=O)NC(CCC(=O)O)C(=O)O [Entry 5, N-(R)-lipoyl-L-alanyl-L-glutamic acid]",24,
"O=C(CCCCC1CCSS1)NC(Cc1ccc(C(=O)O)cc1)C(=O)O [Entry 6, N-(R)-lipoyl-L-4-carboxyphenylalanine]",26,
"O=C(CCCCC1CCSS1)NC(CF)C(=O)O [Entry 7, N-(R)-lipoyl-fluoroalanine]",10,
"O=C(CCCCC1CCSS1)NC(Cc1ccc(O)cc1)C(=O)O [Entry 8, N-(R)-lipoyl-L-tyrosine]",29,
"O=C(O)CCC(NC(=O)CCCCC1CCSS1)C(=O)O [Entry 9, N-(R)-lipoyl-L-glutamic acid]",33,
"O=C(CCCCC1CCSS1)NC(CS(=O)(=O)O)C(=O)O [Entry 10, N-(R)-lipoyl-L-cysteic acid]",30,"Reduction in Cardiac injury ([1]; dose group 3 mg/kg): 30%; Reduction of SCr vs. control [2, 4]: 39.5%; serum creatinine concentrations relative to the control animals (in words) [2]: effectively reduced serum creatinine concentrations"
"O=C(O)CN(CC(=O)O)C(=O)CCCC[C@@H]1CCSS1 [Entry 11, N-(R)-lipoyliminodiacetic acid]",21,
"O=C(O)CCNC(=O)CCCC[C@@H]1CCSS1 [Entry 12, N-(R)-lipoyl-β-alanine]",39,
"O=C(CCCC[C@@H]1CCSS1)NCCS(=O)(=O)O [Entry 13, N-(R)-lipoyl-taurine]",,"Reduction in Cardiac injury ([1]; dose group 3 mg/kg): 50%; Reduction of SCr vs. control [2, 4]: 39.5%; serum creatinine concentrations relative to the control animals (in words) [2]: effectively reduced serum creatinine concentrations"
"O=C(CCCCC1CCSS1)NCCOS(=O)(=O)O [Entry 14, N-(R)-lipoyl-aminoethyl hydrogensulfate]",30,
"O=C(CCCC[C@@H]1CCSS1)NCCP(=O)(O)O [Entry 15, N-(R)-lipoyl-aminoethylphosphonic acid]",53,"Reduction in Cardiac injury ([1]; dose group 1 mg/kg): 30%; Reduction in Cardiac injury ([1]; dose group 3 mg/kg): 50%; Reduction in Cardiac injury ([1]; dose group 10 mg/kg): 32%; Reduction of SCr vs. control ([2]; 1 mg/kg iv bolus 15 minutes prior to ischemia): 28.6%; Reduction of SCr vs. control [2, 4]: 28.6%; Reduction of SCr vs. control [2, 3]: 76.0%; serum creatinine concentrations relative to the control animals (in words) [2]: effectively reduced serum creatinine concentrations"
"O=C(CCCCC1CCSS1)NCCOP(=O)(O)O [Entry 16, N-(R)-lipoyl-aminoethyl dihydrogenphosphate]",47,
"O=C(CCCC[C@@H]1CCSS1)Nc1ccc(C(=O)O)cc1 [Entry 17, N-(R)-lipoyl-para-aminobenzoic acid]",22,
"O=C(CCCC[C@@H]1CCSS1)Nc1cccc(S(=O)(=O)O)c1 [Entry 18, N-(R)-lipoyl-meta-aminobenzene sulfonic acid]",33,
"O=C(CCCC[C@@H]1CCSS1)Nc1ccc(S(=O)(=O)O)cc1 [Entry 19, N-(R)-lipoyl-para-aminobenzene sulfonic acid]",44,
